Assay results published in patent US7671069B2, “Tricyclic, heteroaromatic compounds modulating CXCR4 and/ or CXCR7” (ChemoCentryx, Inc., priority 2006, dated 2010).

What follows are molecules tested against T1, CXCR4 (Homo sapiens, UniProt P61073) (assay: Inhibition of SDF-1 ligand binding or chemotaxis assay for CXCR4). Details: first (or only) activity listed in CXCR4/CXCR7; chemotaxis assay or binding assays.
T1 construct: endogenous in cells; host or cells: CEM-Nkr, CCRF-CEM (ATCC #CCL-119), Jurkat (ATCC #TIB-152), Molt-4 (ATCC# CRL-1582); IL-2 stimulated lymphocytes from human blood
Description: CEM-Nkr, CCRF-CEM (ATCC #CCL-119), Jurkat (ATCC #TIB-152), Molt-4 (ATCC# CRL-1 582), cell lines, all endogenously expressing CXCR4, were used in compound screening and subsequent assays. These cell lines were cultured as a suspension in RPMI-1640 medium supplemented with 2 mM L-glutamine, 1.5 g/L sodium bicarbonate, 4.5 g/L glucose, 10 mM HEPES, 1 mM sodium pyruvate, and 10% FBS. Cells were grown under 5% CO2/95% air, 100% humidity at 37° C. and subcultured twice weekly at 1:6 (cells were cultured at a density range of 1×10^5 to 2×10^6 cells/mL) and harvested at 1×10^6 cells/mL.
Il-2 stimulated lymphocytes were isolated from fresh human blood using density separation and centrifigation. Briefly, whole blood is incubated with equal parts 3% dextran and allowed to separate for 45 minutes. After separation, the top layer is then layered on top of 15 mls of Ficoll (15 mls of Ficoll for every 30 mls of blood suspension) and centrifuged for 30 minutes at 400×g with no brake. The pellet at the bottom of the tube is then isolated and resuspended into PharmLyse RBC Lysis Buffer (BD Biosciences, San Jose, Calif.) after which the sample is again centrifuged for 10 minutes at 400×g with brake. The remaining cell pellet is resuspended as appropriate and stimulated with PHA for 2 days, followed by culturing in the presence of human IL-2 cytokine.
Cells were centrifuged and resuspended in assay buffer (20 mM HEPES pH 7.1, 140 mM NaCl, 1 mM CaCl2, 5 mM MgCl2, and with 0.2% bovine serum albumin) to a concentration of 4×10^6 cells/mL for cell lines. Binding assays were set up as follows. 0.15 mL of cells (6×10^5 cells/well) was added to the assay plates containing the compounds, giving a final concentration of ˜2-10 μM each compound for screening (or part of a dose response for compound IC50 determinations). Then 0.1 mL of ^125I labeled SDF-1α (obtained from Perkin Elmer Life Sciences, Boston, Mass.) diluted in assay buffer to a final concentration of ˜[…], yielding ˜30,000 cpm per well, was added, the plates sealed and incubated for approximately 3 hours at 4° C. on a shaker platform. Reactions were aspirated onto GF/B glass filters pre-soaked in 0.3% polyethyleneimine (PEI) solution, on a vacuum cell harvester (Packard Instruments; Meriden, Conn.). Scintillation fluid (40 μl; Microscint 20, Packard Instruments) was added to each well, the plates were sealed and radioactivity measured in a Topcount scintillation counter (Packard Instruments). Control wells containing either diluent only (for total counts) or excess SDF1a (1 μg/mL, for non-specific binding) were used to calculate the percent of total inhibition for compound. The computer program Prism from Graph Pad, Inc. (San Diego, Calif.) was used to calculate IC50 values. IC50 values are those concentrations required to reduce the binding of radiolabeled SDF-1α to the receptor by 50%. (For further descriptions of ligand binding and other functional assays, see Dairaghi, et al., J. Biol. Chem. 274:21569-21574 (1999), Penfold, et al., Proc. Natl. Acad. Sci. USA. 96:9839-9844 (1999), and Dairaghi, et al,. J. Biol. Chem. 272:28206-28209 (1997)).
Chemotaxis assays were performed using 5 μm pore polycarbonate, polyvinylpyrrolidone-coated filters in 96-well chemotaxis chambers (Neuroprobe; Gaithersburg, Md.) using chemotaxis buffer (Hank's balanced salt solution (HBSS) and 1% FBS). CXCR4 ligand (i.e., SDF1a, R&D Systems; Minneapolis, Minn.) are use to evaluate compound mediated inhibition of CXCR4 mediated migration. Other chemokines (i.e., TECK; R&D Systems; Minneapolis, Minn.) are used as specificity controls. The lower chamber was loaded with 29 μl of chemokine (i.e., 0.1 nM SDF1a); the top chamber contained 50,000 Jurkat cells or IL-2 lymphocytes in 20 μl. […]

T1 sequence (P61073 whole entry): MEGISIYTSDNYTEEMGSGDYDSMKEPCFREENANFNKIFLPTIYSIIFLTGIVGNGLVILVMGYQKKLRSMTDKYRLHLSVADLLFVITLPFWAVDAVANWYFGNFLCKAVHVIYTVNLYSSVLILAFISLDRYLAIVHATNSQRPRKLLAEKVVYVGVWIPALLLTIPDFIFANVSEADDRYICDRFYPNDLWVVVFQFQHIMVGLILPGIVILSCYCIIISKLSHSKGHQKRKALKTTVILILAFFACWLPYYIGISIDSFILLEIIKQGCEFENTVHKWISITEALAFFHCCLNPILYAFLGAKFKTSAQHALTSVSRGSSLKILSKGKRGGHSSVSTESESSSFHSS

| Compound | IC50 |
| --- | --- |
| COc1ccc2c(c1)c1c(cnn1CC(=O)NCCN(C)C1CCCCC1)c(=O)n2CC(=O)OC(C)(C)C [Compound 12] | 1000 to 10000 nM |
| CN(CCCNC(=O)Cn1ncc2cc3ccccc3nc21)C1CCCCC1 [Compound 14] | 1000 to 10000 nM |
| COc1ccc2c(c1)c1c(cnn1C(C)C(=O)NCCCN(C)C1CCCCC1)c(=O)n2C (stereo not shown) [Compound 38] | 1000 to 10000 nM |
| COc1ccc2c(c1)c1c(cnn1CC(=O)NCCN1CCCC3CCCCC31)c(=O)n2C (stereo not shown) [Compound 13] | < 1000 nM |
| COc1ccc2c(c1)c1c(cnn1CC(=O)NCCN(C)C1CCOCC1)c(=O)n2C [Compound 18] | > 10000 nM |
| COc1ccc2c(c1)c1c(cnn1C(C)C(=O)NCCN(C)C1CCCCC1)c(=O)n2C (stereo not shown) [Compound 15] | 1000 to 10000 nM |
| CCN(CCNC(=O)Cn1ncc2c(=O)n(C)c3ccc(OC)cc3c21)C1CCCCC1 [Compound 29] | 1000 to 10000 nM |
| COc1ccc2c(c1)c1c(cnn1CC(=O)NCC1CCCN(C3CCCCC3)C1)c(=O)n2C (stereo not shown) [Compound 17] | > 10000 nM |
| COc1ccc2c(c1)c1c(cnn1CC(=O)NCCN1CC[C@@H]3CCCC[C@H]3C1)c(=O)n2C [Compound 34] | < 1000 nM |
| Cc1ccc2c(c1)c1c(cnn1CC(=O)NCCN(C)C1CCCCC1)c(=O)n2C [Compound 8] | 1000 to 10000 nM |
| Cc1ccc2c(c1)-c1c(cnn1CC(=O)N1CCN(C3CCCCCC3)CC1)CO2 [Compound 5] | 1000 to 10000 nM |
| COc1ccc2c(c1)c1c(cnn1C(=O)NCCN1CCC[C@@H]3CCCC[C@H]31)c(=O)n2C [Compound 28] | < 1000 nM |
| CCN(CCCNC(=O)Cn1ncc2c(=O)n(C)c3ccc(OC)cc3c21)C1CCCCC1 [Compound 37] | < 1000 nM |
| COc1ccc2c(c1)c1c(cnn1CC(=O)NCCN1CCC3CCCCC3C1)c(=O)n2C (stereo not shown) [Compound 16] | < 1000 nM |
| COc1ccc2c(c1)c1c(cnn1CC(=O)NCCN1CCCC(C)C1)c(=O)n2C (stereo not shown) [Compound 40] | 1000 to 10000 nM |
| CN(CCNC(=O)Cn1ncc2[nH]c(=O)c3ccccc3c21)C1CCCCC1 [Compound 10] | > 10000 nM |
| CN(CCNC(=O)Cn1ncc2c(=O)oc3ccccc3c21)C1CCCCC1 [Compound 21] | > 10000 nM |

The remaining lines, values ahead:

| IC50 | Compound |
| --- | --- |
| 1000 to 10000 nM | COc1ccc2c(c1)-c1c(cnn1CC(=O)NCCN(C)C1CCCCC1)C(OCC(=O)OC(C)(C)C)N2 (stereo not shown) [Compound 39] |
| > 10000 nM | Cc1cc2c(cc1Cl)-c1c(cnn1CC(=O)NCCN(C)C1CCCCC1)CO2 [Compound 23] |
| < 1000 nM | CN(CCNC(=O)Cn1ncc2c1-c1ccc(C#N)cc1OC2)C1CCCCC1 [Compound 19] |
| 1000 to 10000 nM | Cc1ccc2c(c1)-c1nn(CC(=O)NCCN(C)C3CCCCC3)cc1CO2 [Compound 3] |
| 1000 to 10000 nM | COc1nc2ccc(C)cc2c2c1cnn2CC(=O)NCCN(C)C1CCCCC1 [Compound 36] |
| 1000 to 10000 nM | COc1ccc2c(c1)c1c(cnn1CC(=O)NCCN(C)C1CCCCCCC1)c(=O)n2C [Compound 32] |
| < 1000 nM | COc1ccc2c(c1)c1c(cnn1CC(=O)NCCCN(C)C1CCCCC1)c(=O)n2C [Compound 35] |
| > 10000 nM | COc1ccc2c(c1)-c1c(cnn1CC(=O)NCCN(C)C1CCCCCC1)CO2 [Compound 26] |
| 1000 to 10000 nM | COc1ccc2c(c1)-c1c(cnn1CC(=O)NCCN(C)C1CCCC1)CO2 [Compound 20] |
| 1000 to 10000 nM | COc1ccc2c(c1)-c1c(cnn1C(=O)NCCN1CCC[C@@H]3CCCC[C@@H]31)CO2 [Compound 27] |
| > 10000 nM | CN(CCNC(=O)Cn1ncc2c1-c1cc(Cl)ccc1OC2)C1CCCCC1 [Compound 4] |
| 1000 to 10000 nM | CN(CCNC(=O)Cn1ncc2c(=O)oc3ccc(Cl)cc3c21)C1CCCCC1 [Compound 22] |
| < 1000 nM | COc1ccc2nc(OC)c3cnn(CC(=O)NCCN(C)C4CCCCC4)c3c2c1 [Compound 9] |
| 1000 to 10000 nM | COc1ccc2c(c1)-c1c(cnn1CC(=O)NCCN(C1CCCCC1)C1CCCCC1)CO2 [Compound 7] |
| < 1000 nM | CCn1c(=O)c2cnn(CC(=O)NCCN(C)C3CCCCC3)c2c2cc(OC)ccc21 [Compound 33] |
| 1000 to 10000 nM | CN(CCNC(=O)Cn1ncc2c1-c1ccccc1CC2)C1CCCCC1 [Compound 6] |
| 1000 to 10000 nM | COc1ccc2c(c1)-c1c(cnn1CC(=O)NCCN(C)C1CCCCCCC1)CO2 [Compound 25] |
| 1000 to 10000 nM | COc1nc2cnn(CC(=O)NCCN(C)C3CCCCC3)c2c2ccccc12 [Compound 11] |

These molecules were tested against T2, CCXCKR2 (CXCR7) (Homo sapiens, UniProt P25106) (assay: Displacement of 125I SDF-1 from CCXCKR2 (CXCR7) on MCF-7 and/or MDA-MB-435S cells). Details: second activity CXCR4/CXCR7.
T2 construct: expressed in transfected cells; host or cells: MDA-MB-435S transfected with pcDNA3.1(+)-hRDC1 (G418 selected) and/or MCF-7 (endogenous receptor)
Assay type: binding
Description: The ability of the compounds to displace the labeled chemokine from the CCXCKR2 receptor sites at multiple concentrations was then determined with the screening process.
Reagents and Cells. […] SDF-1 was purchased from Perkin-Elmer Life Sciences, Inc. (Boston, Mass.). The MCF-7 (adenocarcinoma; mammary gland) cell line was obtained from the American Type Culture Collection (Manassas, Va.) or and was cultured in DMEM (Mediatech, Herudon, Va.) supplemented with 10% fetal bovine serum (FBS) (HyClone Logan, Utah) and bovine insulin (0.01 mg/mL) (Sigma, St. Louis, Mo.) at 37° C. in a humidified incubator at a 5% CO2/air mixture. CCXCKR2 transfected MDA-MB-435S were produced as described below. MDA-MB-435S human breast cancer line, was purchased from ATCC, and cultured in DMEM/10% FBS medium. The complete coding sequence of the gene encoding CCXCKR2 (a.k.a.CXCR7, hRDC1), was isolated from MCF-7 cells using μMACs mRNA isolation kit (Miltenyi Biotec, Auburn, Calif.). DNA contamination was removed by DNase digestion via RNeasy columns (Qiagen, Inc., Valencia, Calif.) and cDNA was generated using GeneAmp RNA PCR Core Kit (Applied Biosystems, Foster City, Clif.). PCR of cDNA samples was performed using Taq PCR Master Mix kit (Qiagen, Inc.) and hRDC1 primers harboring 5′ and 3′ Not I sites (hRDC1F 5′ […]-3′ (SEO ID NO:11), hRDC1R 5′-[…]-3′ (SEO ID NO: 12)) Not I digested PCR product was ligated into Not I digested pcDNA3.1 (+)(Invitrogen, Carlsbad, Calif.) and screened for orientation and sequence confirmed. Plasmid DNA was then isolated from overnight bacterial cultures by Maxiprep (Qiagen, Inc.). Plasmid DNA (10μg) was added to MDA-MB-435s cells and cells were electroporated (0.22 kV, 960uF) via Gene Pulser (Biorad laboratories, Hercules, Calif.). 48 hr post-electroporation, cells were transferred to selection medium (1000 ug/ml G418).
Binding Analysis. Target compounds were tested to determine their ability to bind with CCXCKR2 sites on MCF-7 and/or MDA-MB-435S cells. Efficiency-maximized radioligand binding using filtration protocols as described in Dairaghi D J, et al., HHV8-encoded vMIP-I selectively engages chemokine receptor CCR5. Agonist and antagonist profiles of viral chemokines, J. Biol. Chem. Jul. 30, 1999; 274(31): 21569-74 and Gosling J, et al., Cutting edge: identification of a novel chemokine receptor that binds dendritic cell-i and T cell-active chemokines including ELC, SLC, and TECK., J. Immunol. Mar. 15, 2000; 164(6):2851-6 was used.
In these assays, MCF-7 and/or MDA-MB-435S cells were interrogated with the target compounds and the ability of these compounds to displace ^125I radiolabeled SDF-1 was assessed using the protocol described in Dairaghi and Gosling. The target compounds were added to the plate to the indicated concentration and were then incubated with cells followed by the addition of radiolabeled chemokine (^125I SDF-1) for 3 hr at 4° C. in the following binding medium (25 mM HEPES, 140 mM NaCl, 1 mM CaCl2, 5 mM MgCl2 and 0.2% bovine serum albumin, adjusted to pH 7.1). All assays were then incubated for 3 hrs at 4° C. with gentle agitation. Following incubation in all binding assays, reactions were aspirated onto PEI-treated GF/B glass filters (Packard) using a cell harvester (Packard) and washed twice (25 mM HEPES, 500 mM NaCl, 1 mM CaCl2, 5 mM MgCl2, adjusted to pH 7.1). Scintillant (MicroScint 10, Packard) was added to the wells, and the filters were counted in a Packard Topcount scintillation counter. Data were analyzed and plotted using Prism (GraphPad Prism version 3.0a for Macintosh, GraphPad Software, www.graphpad.com).

T2 sequence (P25106 whole entry): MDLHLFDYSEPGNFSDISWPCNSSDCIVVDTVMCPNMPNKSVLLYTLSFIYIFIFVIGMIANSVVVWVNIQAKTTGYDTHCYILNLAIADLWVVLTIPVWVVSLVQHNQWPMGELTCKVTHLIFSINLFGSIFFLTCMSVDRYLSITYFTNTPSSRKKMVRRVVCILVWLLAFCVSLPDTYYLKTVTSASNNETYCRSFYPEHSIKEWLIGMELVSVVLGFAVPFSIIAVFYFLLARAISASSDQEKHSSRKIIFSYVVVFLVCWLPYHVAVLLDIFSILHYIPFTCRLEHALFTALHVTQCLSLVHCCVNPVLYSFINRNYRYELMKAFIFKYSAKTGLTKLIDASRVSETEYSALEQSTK

| IC50 | Compound |
| --- | --- |
| < 1000 nM | COc1ccc2c(c1)c1c(cnn1CC(=O)NCCN1CCCC3CCCCC31)c(=O)n2C (stereo not shown) [Compound 13] |
| < 1000 nM | COc1ccc2c(c1)c1c(cnn1CC(=O)NCCN(C)C1CCCCCCC1)c(=O)n2C [Compound 32] |
